Test results published in patent US12508251B2, “CD4 mimic compound with anti-HIV activity” (NATIONAL UNIVERSITY CORPORATION KUMAMOTO UNIVERSITY, priority 2019, dated 2025).
“Also recorded” adds a separate entry of the source. Read-outs that look alike come from different tables or passages of the source.

Experiments:
[1] = Cytotoxicity (CC50) in TZM-bl cells, luminescence (CTG); assay type: cell-based; conditions: human
Excerpt: (§1) In this Example, TZM-bl cells (available from NIH AIDS Reagent Program ([…].org/Index.cfm)) were used for individual evaluations. TZM-bl cells have CD4/CCR5/CXCR4 on the surface and express luciferase when infected with HIV. In this manner, TZM-bl cells serve as indicator cells. In the cells, β-galactosidase gene linked to HIV-1 LTR sequence is integrated. When the cells are infected with HIV-1, the tat gene of HIV-1 expresses a transcriptional activator Tat, which acts on the promoter region of LTR to express β-galactosidase. When a substrate is added, enzymatic cleavage occurs to produce galactose and luciferin. Luciferin is oxidized by luciferase to generate chemiluminescence, which can be detected by a luminometer to determine the number of cells infected with HIV-1. […] After each compound was serially diluted, TZM-bl cells (1×10^4) were added, cultured for 48 hours and collected. A Luc reporter reagent was added and the amount of luminescence (reagent: CTG) was measured […].

HIV isolate (KP5mvcR) = test: microbe, parasite or virus in culture; assay type: cell-based, HIV-1; conditions: for SI (selectivity index): CC50/IC50, TZM-bl cells, KP-5mvcR; for IC50: read-out: IC50 KP-5mvcR
Excerpt: In this Example, TZM-bl cells (available from NIH AIDS Reagent Program (https://www.aidsreagent.org/Index.cfm)) were used for individual evaluations. TZM-bl cells have CD4/CCR5/CXCR4 on the surface and express luciferase when infected with HIV. In this manner, TZM-bl cells serve as indicator cells. In the cells, β-galactosidase gene linked to HIV-1 LTR sequence is integrated. When the cells are infected with HIV-1, the tat gene of HIV-1 expresses a transcriptional activator Tat, which acts on the promoter region of LTR to express β-galactosidase. When a substrate is added, enzymatic cleavage occurs to produce galactose and luciferin. Luciferin is oxidized by luciferase to generate chemiluminescence, which can be detected by a luminometer to determine the number of cells infected with HIV-1.
2) IC50 (Calculation of Anti-HIV Activity)
After each compound was serially diluted, TZM-bl cells (1×10^4) and 100TCID50 of HIV isolate (KP5mvcR) were added, and then, cultured for 48 hours. Thereafter, the cells were collected and a Luc reporter reagent was added. The amount of luminescence was measured to calculate the inhibition rate of infection (IC50). The HIV isolate (KP5mvcR) is an MVC resistant HIV clone, which was obtained by subjecting a clinical isolate KP-5 (YTA) to passage culture with PM1 CCR5 cells in the presence of MVC over 48 passages to obtain MVC resistant KP-5Env, which was inserted into NL43 vector (Yoshimura K, et al., J. Gen. Virol., 95, 1816-1826, 2014).

TZM-bl cells = test: Cytotoxicity (CC50) in TZM-bl cells, luminescence (CTG); assay type: cell-based; conditions: TZM-bl cells, cultured for 48 hours
Excerpt: as §1

[2] = Blood half-life after intravenous injection, blood concentration by HPLC; assay type: in vivo, Macaque monkey
Experimental: A Macaque monkey (MM616, body weight 8.00 kg) was intravenously injected with YIR-821 at a dose of 192 mg (10.1 mg/mL). A blood sample was taken from the monkey, 21, 39, 63, 91, 98, 113, 143, 201, 328 and 453 minutes later, and the concentration of YIR-821 in the blood was measured by HPLC.
HPLC conditions are as follows. • Measuring device: JASCO PU-2089 plus (JASCO Corporation, Ltd.) • Column: Cosmosil 5C18-ARII column (4.6×250 mm, Nacalai Tesque, Inc.) • Solvent A: H2O containing 0.1% (v/v) TFA • Solvent B: CH3CN containing 0.1% (v/v) TFA • Gradient: 20-50% solvent B in solvent A, 30 minutes • Flow rate: 1 cm^3/min • Detection: Detection at 260 nm-UV
In the same manner as in Reference Example 1, Macaque monkey (MM616, body weight 8.78 kg) was intravenously injected with TKB-002 trifluoroacetate obtained in Example 2 at a dose of 23.4 μmol (33.2 mg/20 mL). A blood sample was taken before, during and after administration (at a time point of 10 minutes, 37 minutes, 1 hour, 2.5 hours, 4.5 hours, 6.5 hours and 24 hours after administration). Blood concentration was measured by HPLC in the same conditions as in Reference Example 1.

[3] = Stability on incubation with human liver microsomes, HPLC; assay type: in vitro ADME; conditions: 60 minutes at 37° C., NADPH, NaPB pH 7.4
Experimental: More specifically, TKB-002 trifluoroacetate was dissolved in a 100 mM sodium phosphate buffer (NaPB, pH 7.4) to obtain a 0.3 mM solution. This solution (183 μL) was mixed with 20 mM NADPH (2 μL) in 100 mM NaPB (pH 7.4), and 5 μL of 20 mg/mL human liver microsome (Human Microsomes, 50 Donors (ThermoFisher Scientific, cat #: HMMCPL, Lot #: PL050E-A)) solution. After the mixture was pre-incubated at 37° C. for 5 minutes, 20 mM NADPH solution (10 μL) was added to the mixture, which was incubated while gently stirring for 60 minutes at 37° C.
Subsequently, 200 μL of ethyl acetate was added to the mixture to terminate the reaction. The mixture was stirred by a vortex mixer and centrifuged at 3,000 rpm for 5 minutes. The supernatant was filtered and ethyl acetate was removed with nitrogen gas.
To the mixture, 50 μL of MeCN containing 0.1% TFA was added and analysis was carried out by HPLC in the same conditions as in Reference Example 1 and Example 4.

[4] = In vitro decomposition releasing the alkyl or PEG chain in PBS; assay type: physicochemical; conditions: PBS of pH7.4 at 37° C.
Experimental: The compound obtained in Example 5 (YIS-527) has an alkyl chain bound to a side chain of YIR-821 via a —C(═O)O— group, and it is assumed that the compound is hydrolyzed in vitro and in vivo. Accordingly, in this Example, an alkyl chain released in vitro was measured.
With respect to compound (YIS-540) having a PEG chain bound to a side chain of YIR-821 via a —C(═O)O— group obtained in Example 6, the PEG chain released in vitro was measured in the same manner as in Example 7.

[5] = Human immunodeficiency virus 1, TZM-bl, 48 h
[6] = TZM-bl cells, 100TCID50 of KP5mvcR, 48 hours

Row | Structure (SMILES) | SI (selectivity index) (HIV isolate (KP5mvcR)) | IC50 (HIV isolate (KP5mvcR); [5]) [nM] | CC50 at 48 h [1] [µM] | further results
1 | O=C1Nc2ccc(Cl)cc2[C@@](C#CC2CC2)(C(F)(F)F)O1 [EFV, efavirenz, reference compound] | 6,829 | 4.1 ± 0.99 | – | CC50 at 48 h ([1]; TZM-bl cells, cultured for 48 hours, read-out: CC50): 28 ± 3.4 µM
2 | CC1(C)CC(NC(=O)C(=O)Nc2ccc(Cl)cc2)CC(C)(C)N1 [NBD-556, reference compound] | – | – | – | CC50 (TZM-bl cells): 177 ± 9.5 µM; IC50 (HIV isolate (KP5mvcR); [6]): 270 ± 52 nM
3 | COCCOCCOCCOCCOCCNC(=O)CCC(=O)N[C@@H](CCCNC(=N)N)C(=O)NCCN1CCC(NC(=O)C(=O)Nc2ccc(Cl)cc2)CC12CCCCC2 (stereo partly drawn) [TKB-001, N^1-((2S)-1-((2-(4-(2-((4-chlorophenyl)amino)-2-oxoacetamido)-1-azaspiro[5.5]undecan-1-yl)ethyl)amino)-5-guanidino-1-oxopentan-2-yl)-N4-(2,5,8,11,14-pentaoxahexadecan-16-yl)succinamide] | >769 | 130 ± 26 | > 100 | –
4 | COCCOCCOCCOCCOCCOCCOCCOCCOCCOCCOCCOCCNC(=O)CCC(=O)N[C@@H](CCCNC(=N)N)C(=O)NCCN1CCC(NC(=O)C(=O)Nc2ccc(Cl)cc2)CC12CCCCC2 (stereo partly drawn) [TKB-002, N^1-((2S)-1-((2-(4-(2-((4-chlorophenyl)amino)-2-oxoacetamido)-1-azaspiro[5.5]undecan-1-yl)ethyl)amino)-5-guanidino-1-oxopentane-2-yl)-N^4-(2,5,8,11,14,17,20,23,26,29,32,35-dodecaoxaheptatriacontan-37-yl)succinamide] | >1,000 | < 100 | > 100 | blood half-life relative to YIR-821 ([2]; Macaque monkey, intravenous injection): 3.48 times; half-life ([2]; blood, 23.4 μmol, Macaque monkey MM616, intravenous injection): 108 min; stability in the presence of human liver microsomes (HPLC peak intensity) [3]: the intensity of the peak was the same as before incubation; also recorded: stable even in the presence of human liver microsomes
5 | COCCOCCOCCOCCOCCOCCOCCOCCOCCOCCOCCOCCOCCOCCOCCOCCOCCOCCOCCOCCOCCOCCOCCOCCNC(=O)CCC(=O)N[C@@H](CCCNC(=N)N)C(=O)NCCN1CCC(NC(=O)C(=O)Nc2ccc(Cl)cc2)CC12CCCCC2 (stereo partly drawn) [TKB-003] | – | – | – | CC50 (TZM-bl cells): 40 ± 14 µM; IC50 (HIV isolate (KP5mvcR); [6]): < 100 nM
6 | CCCCCCCCCCCCCCCCNC(=O)CCC(=O)OC(CCCNC(=N)N)C(=O)NCCN1CCC(NC(=O)C(=O)Nc2ccc(Cl)cc2)CC12CCCCC2 (stereo not drawn) [YIS-527, 1-((2-(4-(2-((4-chlorophenyl)amino)-2-oxoacetamido)-1-azaspiro[5.5]undecan-1-yl)ethyl)amino)-5-guanidino-1-oxopentan-2-yl 4-(hexadecylamino)-4-oxobutanoate] | 14 | 1200 ± 110 | 17 ± 0.22 | decomposition releasing the alkyl or PEG chain [4]: decomposition reaction was observed
7 | COCCOCCOCCOCCOCCNC(=O)CCC(=O)OC(CCCNC(=N)N)C(=O)NCCN1CCC(NC(=O)C(=O)Nc2ccc(Cl)cc2)CC12CCCCC2 (stereo not drawn) [YIS-540, 1-((2-(4-(2-((4-chlorophenyl)amino)-2-oxoacetamido)-1-azaspiro[5.5]undecan-1-yl)ethyl)amino)-5-guanidino-1-oxopentan-2-yl 18-oxo-2,5,8,11,14-pentaoxa-17-azahenicosan-21-oate] | 6412 | 17 ± 11 | 109 ± 8.2 | decomposition releasing the alkyl or PEG chain [4]: decomposition reaction was observed
